Results from patent US20150032088A1, “SUSTAINED DRUG DELIVERY FROM SOLID STATE COMPOSITIONS WITH NANOCHANNEL MEMBRANES” (priority 2012, published 2015).

How the values were obtained:
Type in all cases: physicochemical
[1] = Second long-term testosterone release experiment, capsule with 40 nm membrane into sink solution; settings: pellet formulation (Testopel), 40 nm nanochannel membrane
Text: The second long-term testosterone release experiment was run with the same setup and measurement method. In this case, 40 nm membranes with 8 μm wide and 1 μm long nanochannels were used for both testosterone formulations. The nanochannel membrane was fabricated by NanoMedical Systems, Inc., Austin Tex. by using the fabrication methods as described in PCT/US2009/064376. In general, the nanochannel membrane was fabricated with microfabrication techniques by employing a sacrificial layer technique, to obtain precise nanochannels parallel to the membrane surface and connected to the membrane inlet and outlet by means of sets of microchannels.
Testosterone powder and pellet (26 and 24.7 mg, respectively) were weighted into PEEK capsules. Both capsules were filled with 900 μL and dropped into 90 mL of Millipore water. The sampling measurement was performed every other day with the same method described above.

[2] = Preliminary release of testosterone from solid pellets through 3 nm nanochannel membrane (UV absorbance)
Protocol: In a preliminary experiment, the nanochannel implant was loaded with degradable testosterone pellets immersed in DI water. The amount of DI water inserted in the capsule was approximately 700 μL.

[3] = First long-term testosterone release experiment, capsule with 3 nm membrane into sink solution; settings: pellet formulation (Testopel), 3 nm nanochannel membrane, 37° C.
Protocol: In the first long-term testosterone release experiment, two testosterone formulations, powder and pellet (Testopel), were used. The release experiment was performed from a capsule into a bottle containing the recipient sink solution. A 3 nm membrane was used for each testosterone formulation and assembled within the capsule. Each nanochannel presented a width of 5 μm and a length of 3 μm. The nanochannel membrane was fabricated by NanoMedical Systems, Inc., Austin Tex. by using the fabrication methods as described in PCT/US2009/064376. In general, the nanochannel membrane was fabricated with microfabrication techniques by employing a sacrificial layer technique, to obtain precise nanochannels parallel to the membrane surface and connected to the membrane inlet and outlet by means of sets of microchannels.
The total number of nanochannel per membrane is equal to 118496. Testosterone powder (21.2 mg) was weighted into the titanium capsule, which was filled with 791 μL of Millipore water. […] For the release measurement of both testosterone conformations, a UV-Vis absorbance versus concentration standard curve was prepared. The testosterone solutions were sampled every other day and the UV absorbance was measured at a wavelength of 250 nm. The sampling method consisted of removing 1.5 mL of the sink solution, measuring the absorbance, and returning the sample to the bottle. […]

[4] = Levothyroxine release from capsule with 3 nm nanochannel membrane into sink solution; settings: powder, 2 separate experiments (019, 040)
Text: The implantable capsule comprising one or more nanochannel membranes were fabricated according to US 2010/0152699 and PCT/US2009/064376. The nanochannel membranes present nanochannels ranging in sizes between 3 and 50 nm. The nanochannel membranes (FIG. 2A) were produced in 29 configurations presenting different constant rates of delivery. Custom diffusion devices (FIG. 2B) were utilized for measuring the amount of drug released from nanochannel membrane devices using UV-spectroscopy, as described in Grattoni et al., Lab on a Chip 10:3074-3083 (2010) and Grattoni et al., Anal. Chem. 83:3096-3103 (2011). A linear standard curve relating UV absorbance and concentration of diffused substance was obtained at a wavelength of 250 nm and used for the release test of testosterone. A linear standard curve relating UV absorbance and concentration of diffused substance was obtained at a wavelength of 240 nm and used for the release test of levothyroxine. […]
PEEK capsules were loaded with 852 and 875 μL of Millipore water and 17.1 mg of powder. […] For the release measurement, a UV-Vis absorbance versus concentration standard curve was prepared. The absorbance was measured at 240 nm. The sampling method consisted of removing 1.5 mL of the sink solution, measuring the absorbance, and returning the sample to the bottle. […]

Row | SMILES | duration of constant (linear) delivery of testosterone [1] | duration of constant release of testosterone ([2]; solid pellets) | release rate of testosterone ([2]; solid pellets (24 mg testosterone) in DI water) | duration of constant (linear) delivery of testosterone [3] | duration of continuous and constant release of levothyroxine [4] | approximate daily release rate of levothyroxine ([4]; 37° C.)
1 | C[C@]12CC[C@H]3[C@@H](CCC4=CC(=O)CC[C@@]43C)[C@@H]1CC[C@@H]2O [testosterone] | over 160 days | 13 days | 5 µg/day | over 180 days |  | 
2 | N[C@@H](Cc1cc(I)c(Oc2cc(I)c(O)c(I)c2)c(I)c1)C(=O)O.O.O.O.O.O.[Na] [levothyroxine, L-thyroxine sodium pentahydrate] |  |  |  |  | 17 days | ~500 µg/day
